This is an account of results in patent US20110105509A1 (Wyeth, LLC, priority 2009, published 2011).

Molecules are shown by their SMILES.

The assay addresses T1, CRTH2 (Homo sapiens, UniProt Q9Y5Y4).
T1 construct: expressed in transfected cells; host or cells: CHO cells
T1 sequence (Q9Y5Y4 1-395): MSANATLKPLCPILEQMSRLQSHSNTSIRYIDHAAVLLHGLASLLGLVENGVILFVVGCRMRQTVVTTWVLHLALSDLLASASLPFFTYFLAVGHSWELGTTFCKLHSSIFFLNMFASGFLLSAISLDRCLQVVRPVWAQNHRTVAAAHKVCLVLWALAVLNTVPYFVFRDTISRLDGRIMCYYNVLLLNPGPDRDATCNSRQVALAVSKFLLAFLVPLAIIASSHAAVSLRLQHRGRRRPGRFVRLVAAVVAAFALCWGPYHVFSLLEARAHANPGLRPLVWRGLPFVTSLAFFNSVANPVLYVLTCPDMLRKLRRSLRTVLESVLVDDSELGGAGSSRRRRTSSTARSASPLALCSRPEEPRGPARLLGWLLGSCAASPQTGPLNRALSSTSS
The assay can be described thus: FRET based competitive immunoassay (cAMP) in CRTH2 expressing CHO cells. Type of assay: cell-based. Conditions: CRTH2 expressing CHO cells incubated with forskolin and PGD2; Eu3+ cryptate-labeled anti-cAMP and d2-labeled cAMP. As for the experimental part:
FRET Assay: To evaluate potency compounds were tested in a FRET based competitive immunoassay in which CRTH2 expressing CHO cells were incubated in the presence of forskolin and PGD2 along with Eu3+ cryptate-labeled anti-cAMP and d2-labeled cAMP.
Usually IC50 stands for the concentration that gives 50% inhibition. A lower IC50 goes with inhibition by little substance. Take `Cc1c(-c2ccc(=O)n(CC(C)C)c2)c2ccccc2n1CC(=O)O` [Example 287, 2-(3-(1-isobutyl-6-oxo-1,6-dihydropyridin-3-yl)-2-methyl-1H-indol-1-yl)-acetic acid]: the IC50 was 305 nM. In the case of `Cc1c(-c2ccc(=O)n(C3CCCC3)c2)c2ccccc2n1CC(=O)O` [Example 288, 2-(3-(1-cyclopentyl-6-oxo-1,6-dihydropyridin-3-yl)-2-methyl-1H-indol-1-yl)-acetic acid] it was 117 nM; in that of `Cc1c(-c2ccc(=O)n(Cc3ccc(F)cc3)c2)c2cc(Cl)ccc2n1CC(=O)O` [Example 289, 2-(5-chloro-3-(1-(4-fluorobenzyl)-6-oxo-1,6-dihydropyridin-3-yl)-2-methyl-1H-indol-1-yl)acetic acid], 6 nM; in that of `Cc1c(-c2ccc(=O)n(Cc3ccccc3F)c2)c2cc(Cl)ccc2n1CC(=O)O` [Example 290, 2-(5-chloro-3-(1-(2-fluorobenzyl)-6-oxo-1,6-dihydropyridin-3-yl)-2-methyl-1H-indol-1-yl)acetic acid], 7 nM. For `Cc1c(-c2ccc(=O)n(Cc3c(F)cccc3F)c2)c2cc(Cl)ccc2n1CC(=O)O` [Example 291, 2-(5-chloro-3-(1-(2,6-difluorobenzyl)-6-oxo-1,6-dihydropyridin-3-yl)-2-methyl-1H-indol-1-yl)acetic acid] the value was 8 nM; for `Cc1c(-c2ccc(=O)n(Cc3cccc(F)c3F)c2)c2cc(Cl)ccc2n1CC(=O)O` [Example 292, 2-(5-Chloro-3-(1-(2,3-difluorobenzyl)-6-oxo-1,6-dihydropyridin-3-yl)-2-methyl-1H-indol-1-yl)acetic acid], 11 nM. For `Cc1c(-c2ccc(=O)n(Cc3cc(F)cc(F)c3)c2)c2cc(Cl)ccc2n1CC(=O)O` [Example 294, 2-(5-Chloro-3-(1-(3,5-difluorobenzyl)-6-oxo-1,6-dihydropyridin-3-yl)-2-methyl-1H-indol-1-yl)acetic acid] the value was 2 nM; for `Cc1c(-c2ccc(=O)n(Cc3cccc(F)c3)c2)c2cc(Cl)ccc2n1CC(=O)O` [Example 295, 2-(5-chloro-3-(1-(3-fluorobenzyl)-6-oxo-1,6-dihydropyridin-3-yl)-2-methyl-1H-indol-1-yl)acetic acid], 11 nM; for `Cc1c(-c2ccc(=O)n(CCCC(F)(F)F)c2)c2ccccc2n1CC(=O)O` [Example 296, 2-(2-methyl-3-(6-oxo-1-(4,4,4-trifluorobutyl)-1,6-dihydropyridin-3-yl)-1H-indol-1-yl)acetic acid], 397 nM. Molecule `Cc1c(-c2ccc(=O)n(CCCC(F)(F)F)c2)c2cc(F)ccc2n1CC(=O)O` [Example 297, 2-(5-fluoro-2-methyl-3-(6-oxo-1-(4,4,4-trifluorobutyl)-1,6-dihydropyridin-3-yl)-1H-indol-1-yl)acetic acid] came in with an IC50 of 38 nM. In the case of `COc1ccc2c(c1)c(-c1ccc(=O)n(CC(F)(F)F)c1)c(C)n2CC(=O)O` [Example 298, 2-(5-methoxy-2-methyl-3-(6-oxo-1-(2,2,2-trifluoroethyl)-1,6-dihydropyridin-3-yl)-1H-indol-1-yl)acetic acid] it was more than 2000 nM; in that of `Cc1c(-c2ccc(=O)n(Cc3cccc(F)c3F)c2)c2cc(F)ccc2n1CC(=O)N1CCCC1` [Example 299, 1-(2,3-difluorobenzyl)-5-(5-fluoro-2-methyl-1-(2-oxo-2-(pyrrolidin-1-yl)-ethyl)-1H-indol-3-yl)pyridin-2(1H)-one], more than 2000 nM. In turn, `Cc1c(-c2ccc(=O)n(Cc3cccc(F)c3F)c2)c2cc(F)ccc2n1CC(=O)N(C)C` [Example 300, 2-(3-(1-(2,3-difluorobenzyl)-6-oxo-1,6-dihydropyridin-3-yl)-5-fluoro-2-methyl-1H-indol-1-yl)-N,N-dimethylacetamide] had an IC50 of more than 2000 nM. On to `Cc1c(-c2ccc(=O)n(Cc3cccc(F)c3F)c2)c2cc(F)ccc2n1CC(N)=O` [Example 301, 2-(3-(1-(2,3-difluorobenzyl)-6-oxo-1,6-dihydropyridin-3-yl)-5-fluoro-2-methyl-1H-indol-1-yl)acetamide], for which the concentration for half-maximal inhibition (IC50) is more than 2000 nM. The molecule `Cc1c(-c2ccc(=O)n(Cc3cccc(F)c3F)c2)c2cc(F)ccc2n1CC(=O)NS(C)(=O)=O` [Example 302, 2-(3-(1-(2,3-Difluorobenzyl)-6-oxo-1,6-dihydropyridin-3-yl)-5-fluoro-2-methyl-1H-indol-1-yl)-N-(methylsulfonyl)acetamide] had an IC50 of 159 nM. For `Cc1c(-c2ccc(=O)n(Cc3cccc(F)c3F)c2)c2cc(F)ccc2n1CCC(=O)O` [Example 303, 3-(3-(1-(2,3-difluorobenzyl)-6-oxo-1,6-dihydropyridin-3-yl)-5-fluoro-2-methyl-1H-indol-1-yl)propanoic acid] the value was more than 2000 nM; for `Cc1ccc2c(c1)c(-c1ccc(=O)n(CC(F)(F)F)c1)c(C)n2CC(=O)O` [Example 304, 2-(2,5-dimethyl-3-(6-oxo-1-(2,2,2-trifluoroethyl)-1,6-dihydropyridin-3-yl)-1H-indol-1-yl)acetic acid], 1180 nM.

Take `Cc1c(-c2ccc(=O)n(Cc3cccc(F)c3F)c2)c2cc(F)ccc2n1CCO` [Example 305, 1-(2,3-difluorobenzyl)-5-(5-fluoro-1-(2-hydroxyethyl)-2-methyl-1H-indol-3-yl)-pyridin-2(1H)-one]: the IC50 was more than 2000 nM.

Take `Cc1c(-c2ccc(=O)n(Cc3cccc(F)c3F)c2)c2cc(F)ccc2n1[C@@H](C)C(=O)O` [Example 306a, (S)-2-(3-(1-(2,3-difluorobenzyl)-6-oxo-1,6-dihydropyridin-3-yl)-5-fluoro-2-methyl-1H-indol-1-yl)propanoic acid]: the half-maximal inhibitory concentration (IC50) was more than 2000 nM.

`Cc1c(-c2ccc(=O)n(Cc3cccc(F)c3F)c2)c2cc(F)ccc2n1[C@H](C)C(=O)O` [Example 306b, (R)-2-(3-(1-(2,3-difluorobenzyl)-6-oxo-1,6-dihydropyridin-3-yl)-5-fluoro-2-methyl-1H-indol-1-yl)propanoic acid] showed an IC50 of more than 2000 nM.

In turn, `Cc1c(-c2ccc(=O)n(CCC(F)(F)F)c2)c2cc(F)ccc2n1CC(=O)O` [Example 307, 2-(5-fluoro-2-methyl-3-(6-oxo-1-(3,3,3-trifluoropropyl)-1,6-dihydropyridin-3-yl)-1H-indol-1-yl)acetic acid] showed a half-maximal inhibitory concentration (IC50) of 28 nM. In the case of `Cc1c(-c2ccc(=O)n(Cc3ccncc3)c2)c2cc(F)ccc2n1CC(=O)O` [Example 308, 2-(5-fluoro-2-methyl-3-(6-oxo-1-(pyridin-4-ylmethyl)-1,6-dihydropyridin-3-yl)-1H-indol-1-yl)acetic acid] it was 35 nM; in that of `Cc1c(-c2ccc(=O)n(Cc3ccccn3)c2)c2cc(F)ccc2n1CC(=O)O` [Example 309, 2-(5-fluoro-2-methyl-3-(6-oxo-1-(pyridin-2-ylmethyl)-1,6-dihydropyridin-3-yl)-1H-indol-1-yl)acetic acid], 105 nM. For `Cc1c(-c2ccc(=O)n(Cc3cccc(F)c3F)c2)c2cc(F)ccc2n1CC#N` [Example 310, 2-(3-(1-(2,3-difluorobenzyl)-6-oxo-1,6-dihydropyridin-3-yl)-5-fluoro-2-methyl-1H-indol-1-yl)acetonitrile] the value was more than 1000 nM; for `Cc1c(-c2ccc(=O)n(Cc3cccc(F)c3F)c2)c2cc(F)ccc2n1Cc1nn[nH]n1` [Example 311, 5-(1-((2H-tetrazol-5-yl)methyl)-5-fluoro-2-methyl-1H-indol-3-yl)-1-(2,3-difluoro-benzyl)pyridin-2(1H)-one], more than 1000 nM. In the case of `Cc1c(-c2ccc(=O)n(Cc3ccccc3)c2)c2cc(F)ccc2n1CC(=O)NS(=O)(=O)c1ccccc1` [Example 312, 2-(3-(1-benzyl-6-oxo-1,6-dihydropyridin-3-yl)-5-fluoro-2-methyl-1H-indol-1-yl)-N-(phenylsulfonyl)acetamide] it was more than 1000 nM; in that of `Cc1c(-c2ccc(=O)n(Cc3ccccc3)c2)c2cc(F)ccc2n1CC(=O)NS(C)(=O)=O` [Example 313, 2-(3-(1-Benzyl-6-oxo-1,6-dihydropyridin-3-yl)-5-fluoro-2-methyl-1H-indol-1-yl)-N-(methyl-sulfonyl)acetamide], 32 nM; in that of `Cc1ccccc1S(=O)(=O)NC(=O)Cn1c(C)c(-c2ccc(=O)n(Cc3ccccc3)c2)c2cc(F)ccc21` [Example 314, 2-(3-(1-Benzyl-6-oxo-1,6-dihydropyridin-3-yl)-5-fluoro-2-methyl-1H-indol-1-yl)-N-(o-tolyl-sulfonyl)acetamide], more than 1000 nM.

Turning to `Cc1c(-c2ccc(=O)n(Cc3cccnc3)c2)c2cc(F)ccc2n1CC(=O)O` [Example 315, 2-(5-fluoro-2-methyl-3-(6-oxo-1-(pyridin-3-ylmethyl)-1,6-dihydropyridin-3-yl)-1H-indol-1-yl)acetic acid], the half-maximal inhibitory concentration (IC50) was 32 nM. On to `Cc1c(-c2ccc(=O)n(CCC(C(F)(F)F)C(F)(F)F)c2)c2cc(F)ccc2n1CC(=O)O` [Example 316, 2-(5-fluoro-2-methyl-3-(6-oxo-1-(4,4,4-trifluoro-3-(trifluoromethyl)butyl)-1,6-dihydropyridin-3-yl)-1H-indol-1-yl)acetic acid], for which the half-inhibitory concentration (IC50) was found to be 39 nM. In the case of `Cc1c(-c2ccc(=O)n(CCCC(F)(F)F)c2)c2cc(F)ccc2n1CC(=O)NS(=O)(=O)C1CC1` [Example 317, N-(cyclopropylsulfonyl)-2-(5-fluoro-2-methyl-3-(6-oxo-1-(4,4,4-trifluorobutyl)-1,6-dihydropyridin-3-yl)-1H-indol-1-yl)acetamide] it was more than 1000 nM.
